# Test results as given in article PMC7142633, “Impact of B-Ring Substitution and Acylation with Hydroxy Cinnamic Acids on the Inhibition of Porcine α-Amylase by Anthocyanin-3-Glycosides” (Foods, 2020).
# Like-named read-outs stand apart in the source and are kept apart here. Marks after values point to notes of the source that are not given here.
# Assays:
# [1] = biological target: T1, α-amylase from porcine pancreas (Sus scrofa, UniProt P00690); assay: α-amylase enzyme activity assay, GalG2CNP conversion, UV/Vis detection of CNP at 405 nm; format: biochemical; details: for IC50: read-out: IC50 (Cheng−Prussoff, Equation (9)); for Kmapp / vmaxapp: Michaelis Menten fit
# T1 construct: A saline suspension of α-amylase from porcine pancreas; purchased Sigma Aldrich (Steinheim, Germany) Lot #SLBN9170V (catalogue number not given); host or cells: porcine pancreas (tissue-derived)
# T1 sequence (P00690 16-511): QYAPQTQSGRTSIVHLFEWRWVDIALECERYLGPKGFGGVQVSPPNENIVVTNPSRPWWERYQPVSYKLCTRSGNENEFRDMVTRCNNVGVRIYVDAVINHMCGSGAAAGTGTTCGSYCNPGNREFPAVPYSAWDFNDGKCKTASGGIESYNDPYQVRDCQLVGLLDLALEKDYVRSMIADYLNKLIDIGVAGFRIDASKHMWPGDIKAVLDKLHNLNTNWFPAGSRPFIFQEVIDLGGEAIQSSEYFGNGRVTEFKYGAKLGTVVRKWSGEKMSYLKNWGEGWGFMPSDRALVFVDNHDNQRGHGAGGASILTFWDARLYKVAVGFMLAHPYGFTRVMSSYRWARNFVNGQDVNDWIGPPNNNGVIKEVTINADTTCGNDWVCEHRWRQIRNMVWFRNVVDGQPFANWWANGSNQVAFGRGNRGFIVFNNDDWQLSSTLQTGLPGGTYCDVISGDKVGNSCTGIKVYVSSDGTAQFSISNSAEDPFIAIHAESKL
# Experimental: The enzyme activity assay, […], was established by Homoki and co-workers and already used by the authors to evaluate the inhibitory strength of different phenolic structures. To enable the evaluation of the result obtained in the present study compared to the non-anthocyanin phenolics investigated previously, the assay conditions were identical. In short, to 12 different GalG2CNP concentrations ([S] = 0−2000 µM) in MES^+ buffer, inhibitor [I] and 50 µL enzyme solution (c = 1.51 units/~100 pM, on the basis of supplier information) were mixed in a microtiter plate (Greiner BioOne, Frickenhausen, Germany; transparent, F-bottom). For blanks, the enzyme solution was substituted with MES^+ buffer. The final volume per well was 250 µL. To quantify the reaction product, a linear calibration with eight different CNP concentrations in the range of 0−35 µM was performed for each plate. Dilutions of the anthocyanin stock solutions (0.1% HCl) were equilibrated at pH 6.1 for one hour. Final inhibitor concentrations were limited due to its strong absorption at 405 nm to 12.5, 25, and 50 µM. For each anthocyanin structure, the assay was conducted on two to three different days with freshly prepared stocks of substrate, enzyme, and inhibitor.
# In addition to the Michaelis Menten constant (Km) and the maximal conversion rate (vmax) values (Table S1), inhibition constants (Kic, Kiu) were calculated by fitting the data by two approaches: (i) According to the mixed inhibition equation (Equation (4)) or competitive inhibition equation (Equation (5)), applying an optimal global fit containing data from all inhibitor concentrations including the control ([I] = 0 µM); and (ii) by an independent fit according to the Michaelis Menten equation (Equation (6)), providing the apparent values Km^app and Vmax^app (Table S2) for each inhibitor concentration, which were then used to calculate the inhibition constants (Equations (7) and (8)). (4) v0= vmax/Km/[S] · (1+[I]/Kic)+(1+[I]/Kiu), (5) v0=vmax/Km/[S] · ( 1+[I]/Kic)+1, (6) v0=vmax · [S]/Km+[S], (7) Kic=vmax^app/Km^app · [I]/vmax/Km−vmax^app/Km^app, (8) Kiu=vmax^app · [I]/vmax− vmax^app.
# The IC50 values of the different anthocyanins were derived from the inhibition constants for different substrate concentrations by the Cheng−Prusoff equation (Equation (9)). (9) IC50=(Km+[S])/Km/Kic+[S]/Kiu.
# • KM: Michaelis Menten constant (µM) • vmax: Maximal conversion rate of the uninhibited reaction (µM/min) • v0: Observed conversion rate at given substrate and inhibitor concentration (µM/min) • [S]: Substrate concentration • [I]: Inhibitor concentration • Kic: Inhibitor constant, reflecting the competitive inhibition in the equation (µM) • Kiu: Inhibitor constant, reflecting the uncompetitive inhibition in the equation (µM) • vmax^app: Calculated maximal conversion rate, when the Michaelis Menten equation is used on an inhibited curve (µM/min) • Km^app: Calculated Michaelis Menten constant, when the Michaelis Menten equation is used on an inhibited curve (µM) • IC50: Half maximal inhibitory concentration (inhibitor concentration needed to achieve 50% inhibition; it is dependent on the substrate concentration) (µM)
# For data analyses and calculations, Origin 2018b (OriginLab, software extension Enzyme Kinetics) was used. The Levenberg−Marquardt algorithm procedure was chosen for iteration. All assays were performed in two independent replicates at different dates. Values are expressed in arithmetic means ± average deviation (AD). The statistical significance and differences between groups were analyzed by one-way analysis of variance (ANOVA), followed by Tukey’s test. Differences were considered significant when p < 0.05. Data were processed using Microsoft Excel® (2010).
# human salivary α-amylase = biological target: human salivary α-amylase; set-up: method as in PMID 26471548; details: cited from earlier work
# [2] = biological target: porcine pancreatic α-amylase; set-up: method as in doi:10.1016/j.jff.2015.11.042; details: cited from earlier work
# [3] = aqueous solution; cited from earlier work
# [4] = biological target: T1, α-amylase from porcine pancreas; assay: Isothermal titration calorimetry, single injection, GalG2CNP conversion; format: biochemical; details: 100 µM inhibitor, 0.95 mM substrate, 37 °C
# Experimental: To evaluate the inhibitory strength of 100 µM anthocyanin-3-glucosides and black carrot anthocyanins, GalG2CNP conversion to CNP was monitored by the released heat. According to the previous study, ITC measurements were carried out in a single injection experiment set-up on a MICROCALTM PEAQ-ITC calorimeter (S/N MAL1188053, Malvern Panalytical Almelo, Netherlands). Following an equilibration time of 10 min, 1 µL α-amylase (1 µM in 50 mM MES^+ buffer) was added to 0.95 mM of the substrate with or without 100 µM of the phenolic inhibitor in the cell (Vcell = 0.207 mL). The temperature was maintained at 37 °C and the sample was stirred at 750 rpm throughout. The feedback/gain mode was set to high. The resulting heat profile was transformed and the conversion rate was plotted against the substrate concentration [S] by an origin routine template provided by Malvern® for Origin version 7.
# [5] = (i) Kic and Kiu by global fit, [S] 10 µM
# [6] = (i) Kic and Kiu by global fit, [S] 100 µM
# [7] = (i) Kic and Kiu by global fit, [S] 10^3 µM
# [8] = (i) Kic and Kiu by global fit, [S] 10^6 µM
# [9] = (i) global fit, mixed inhibition Equation (4), read-out: Kic
# [10] = (i) global fit, mixed inhibition Equation (4), read-out: Kiu
# [11] = (ii) Kic and Kiu by independent fit, [S] 10 µM
# [12] = (ii) Kic and Kiu by independent fit, [S] 100 µM
# [13] = (ii) Kic and Kiu by independent fit, [S] 10^3 µM
# [14] = (ii) Kic and Kiu by independent fit, [S] 10^6 µM
# [15] = (ii) independent Michaelis Menten fit (Equation (6)), calculation by Equation (7), read-out: Kic
# [16] = (ii) independent Michaelis Menten fit (Equation (6)), calculation by Equation (8), read-out: Kiu
# [17] = (ii) independent fit, Equations (7) and (8)
# [18] = from apparent values, inhibitor c 25 µM, read-out: Kic
# [19] = from apparent values, inhibitor c 25 µM, read-out: Kiu
# [20] = from apparent values, inhibitor c 50 µM, read-out: Kic
# [21] = from apparent values, inhibitor c 50 µM, read-out: Kiu
# [22] = from apparent values, inhibitor c 12,5 µM, read-out: Kic
# [23] = from apparent values, inhibitor c 12,5 µM, read-out: Kiu
"IC50 [1, 5] [µM]","IC50 [1, 6] [µM]","IC50 [1, 7] [µM]","Kic/Kiu ([1]; (i) global fit, Equation (4))","Ki [1, 9] [µM]","Ki [1, 10] [µM]","IC50 [1, 11] [µM]","IC50 [1, 12] [µM]","IC50 [1, 13] [µM]","IC50 [1, 14] [µM]","Ki [1, 15] [µM]","Ki [1, 16] [µM]","Kic/Kiu [1, 17]",Kmapp ([1]; inhibitor c 25 µM) [µM],vmaxapp ([1]; inhibitor c 25 µM),Kmapp ([1]; inhibitor c 50 µM) [µM],vmaxapp ([1]; inhibitor c 50 µM),"Kmapp ([1]; inhibitor c 12,5 µM) [µM]","vmaxapp ([1]; inhibitor c 12,5 µM)","Ki [1, 18] [µM]",SMILES,further results
83 ± 11,97 ± 15,147 ± 36,0.45 ± 0.08 ***^a,81 ± 10,184 ± 56,137,153,201,228,134,228,0.56 *^a,285,"0,74 ± 0,26 µM/min",300,"0,69 ± 0,21 µM/min",244,"0,79 ± 0,23 µM/min",64,"OC[C@H]1O[C@@H](Oc2cc3c(O)cc(O)cc3[o+]c2-c2ccc(O)c(O)c2)[C@H](O)[C@@H](O)[C@@H]1O [Cyd-glc, cyanidin-3-glucoside]","IC50 [1, 8]: 184 ± 56 µM; Ki [1, 19]: 141 µM; Ki [1, 20]: 103 µM; Ki [1, 21]: 250 µM; Ki [1, 22]: 236 µM; Ki [1, 23]: 146 µM; Ki ([1]; mean over inhibitor c 12,5, 25, 50 µM (Supplementary 2), read-out: Kiu mean ± SD): 179 ± 62 µM; IC50 (human salivary α-amylase): 180 ± 20 µM; inhibition type (human salivary α-amylase): competitive inhibition type; IC50 [2]: 24 ± 3 µM; inhibition type [2]: competitive inhibition type; pKH [3]: 3.02 ± 0.06"
64 ± 25,77 ± 25,134 ± 1,0.34 ± 0.24 ^a,62 ± 25,204 ± 68,65 ± 20,83 ± 24,167 ± 20,270 ± 32,63 ± 19,270 ± 33,0.26 ± 0.13 ^a,273 ± 52,"0,79 ± 0,09 µM/min",335 ± 129,"0,69 ± 0,03 µM/min",247 ± 33,"0,84 ± 0,10 µM/min",63 ± 17,"OC[C@H]1O[C@@H](Oc2cc3c(O)cc(O)cc3[o+]c2-c2cc(O)c(O)c(O)c2)[C@H](O)[C@@H](O)[C@@H]1O [Dpd-glc, delphinidin-3-glucoside]","Ki [1, 19]: 233 ± 25 µM; Ki [1, 20]: 60 ± 27 µM; Ki [1, 21]: 212 ± 87 µM; Ki [1, 22]: 66 ± 14 µM; Ki [1, 23]: 364 ± 13 µM; Ki ([1]; mean over inhibitor c 12,5, 25, 50 µM (Supplementary 2), read-out: Kic mean ± SD): 63 ± 3 µM; inhibitory strength by ITC (thermogram, Michaelis Menten plot) [4]: Mlv-3-glc > Cyd-3-glc > Dpd-3-glc~Peo-3-glc; pKH [3]: 2.36 ± 0.05"
58 ± 15,71 ± 20,117 ± 41,0.39 ± 0.05 ^a,57 ± 15,151 ± 59,71 ± 2,84 ± 7,127 ± 31,158 ± 53,69 ± 1,158 ± 53,0.46 ± 0.13 ^a,258 ± 13,"0,58 ± 0,22 µM/min",325 ± 42,"0,53 ± 0,23 µM/min",235 ± 2,"0,65 ± 0,23 µM/min",62 ± 7,"OC[C@H]1O[C@@H](Oc2cc3c(O)cc(O)cc3[o+]c2-c2ccc(O)cc2)[C@H](O)[C@@H](O)[C@@H]1O [Plg-glc, pelargonidin-3-glucoside]","IC50 [1, 8]: 151 ± 59 µM; Ki [1, 19]: 126 ± 30 µM; Ki [1, 20]: 55 ± 19 µM; Ki [1, 21]: 163 ± 64 µM; Ki [1, 22]: 91 ± 22 µM; Ki [1, 23]: 187 ± 64 µM; pKH [3]: 2.98 ± 0.06"
